Test results taken from US20230133538A1, “TARGETED DEGRADERS OF ABERRANT TAU BASED ON THE PET TRACER PBB3” (DANA-FARBER CANCER INSTITUTE, INC., priority 2020, published 2023).

Tests used:
[1] = target: T1, tau protein in human tau-A152T neurons (Homo sapiens, UniProt P10636, A469T); test: Dose-effect on tau in tau-A152T neurons (Western blot, total tau TAU5 and P-Tau S396); assay type: cell-based; conditions: human tau-A152T neurons (6-week differentiated), 24 hours treatment, 1 μM or 10 μM
T1 construct: degrade tau protein in cultured human differentiated frontotemporal lobar dementia (FTD) neurons; endogenous in cells; host or cells: human differentiated FTD neurons, tau-A152T, 6-week differentiated
T1 sequence (P10636 1-441 isoform P10636-8 A152T): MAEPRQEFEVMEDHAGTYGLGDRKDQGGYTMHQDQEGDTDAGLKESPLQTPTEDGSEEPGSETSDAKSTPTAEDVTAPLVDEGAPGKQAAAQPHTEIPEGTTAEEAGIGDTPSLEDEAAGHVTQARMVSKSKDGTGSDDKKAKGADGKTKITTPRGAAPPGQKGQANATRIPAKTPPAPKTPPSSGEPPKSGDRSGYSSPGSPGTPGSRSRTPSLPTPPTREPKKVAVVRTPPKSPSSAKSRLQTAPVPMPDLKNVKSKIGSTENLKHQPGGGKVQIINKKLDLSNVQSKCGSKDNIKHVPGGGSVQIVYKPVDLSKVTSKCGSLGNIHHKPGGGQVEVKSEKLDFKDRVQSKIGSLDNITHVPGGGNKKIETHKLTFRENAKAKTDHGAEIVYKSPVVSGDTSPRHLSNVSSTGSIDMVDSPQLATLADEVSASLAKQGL
Procedure: (§1) Assays were performed according to protocols described in Silva et al., eLife, 8:e45457 (2019). Each of the bispecific compounds, along with the control parental scaffold, was evaluated for the ability to degrade tau protein in cultured human differentiated frontotemporal lobar dementia (FTD) neurons.
(§2) For each condition, 1 well of differentiated neuronal cells (6 well-plate) was washed and collected in PBS, pelleted and lysed in radioimmunoprecipitation assay (RIPA) buffer (Boston BioProducts) with 2% SDS (Sigma), protease inhibitors (Roche cOmplete™ Mini tablets), and phosphatase inhibitors (Sigma), followed by sonication in a water sonicator (Bransonic® Ultrasonic Baths, Thomas Scientific) for 5 minutes, and centrifugation at 20,000 g for 15 minutes. Supernatants were transferred to new tubes, total protein concentration was quantified with the Pierce™ BCA Protein Assay Kit (Thermo Scientific™), and SDS-PAGE gels were loaded with 10 μg total protein per well (pre-boiled samples). Western blots were performed with the Novex NuPAGE™ SDS-PAGE Gel System (Invitrogen™). All samples were resolved in 7% Tris-Acetate gels with Tris-Acetate running buffer (Invitrogen™). Blots were probed with antibodies against total tau (TAU5) and phosphorylated tau (Ser396), along with (3-actin as a loading control; followed by corresponding HRP-linked secondary antibodies (Cell Signaling Technology®), and SuperSignal™ West Pico Chemiluminescent Substrate (Thermo Scientific™) detection. Membranes were exposed to autoradiographic film (LabScientific) and films were scanned using an Epson® Perfection V800 Photo Scanner. Protein band intensities (pixel mean intensity) were quantified using Adobe Photoshop® CS5 Histogram function.
(§3) The vehicle alone (DMSO) had no effect on tau. However, varying degrading activity was observed among the specific compounds with overall similar relative levels of degrading activity between tau-A152T neurons and tau-P301L neurons. Bispecific compounds were added at the doses indicated (either 1 μM or 10 μM).

[2] = target: T2, tau protein in human tau-P301L neurons (Homo sapiens, UniProt P10636, P618L); test: Dose-effect on tau in tau-P301L neurons (Western blot, total tau TAU5 and P-Tau S396); assay type: cell-based; conditions: human tau-P301L neurons (6-week differentiated), 24 hours treatment, 1 μM or 10 μM
T2 construct: degrade tau protein in cultured human differentiated frontotemporal lobar dementia (FTD) neurons; endogenous in cells; host or cells: human differentiated FTD neurons, tau-P301L, 6-week differentiated
T2 sequence (P10636 1-441 isoform P10636-8 P301L): as the sequence (P10636 1-441 isoform P10636-8 A152T) above, with T152A, P301L counted along it
Procedure: as §1, §2, §3

Row | SMILES | degradation of hyperphosphorylated tau and/or total tau [1] | degradation of hyperphosphorylated tau and/or total tau [2]
1 | Nc1cccc2c1CN(C1CCC(=O)NC1=O)C2=O (stereo not drawn) [Lenalidomide, reference compound] | no effect on tau levels | no effect on tau levels
2 | CNc1ccc(/C=C/C=C/c2nc3ccc(OCCCCCCNC(=O)COc4cccc5c4C(=O)N(C4CCC(=O)NC4=O)C5=O)cc3s2)cn1 (stereo not drawn) [compound 2, 2-(2-(2,6-dioxopiperidin-3-yl)-1,3-dioxoisoindolin-4-yloxy)-N-(6-(2-((1E,3E)-4-(6-(methylamino)pyridin-3-yl)buta-1,3-dienyl)benzo[d]thiazol-6-yloxy)hexyl)acetamide] | significantly degraded | significantly degraded
3 | CNc1ccc(/C=C/C=C/c2nc3ccc(OCCOCCOCCNC(=O)COc4cccc5c4C(=O)N(C4CCC(=O)NC4=O)C5=O)cc3s2)cn1 (stereo not drawn) [compound 4, 2-(2-(2,6-dioxopiperidin-3-yl)-1,3-dioxoisoindolin-4-yloxy)-N-(2-(2-(2-(2-((1E,3E)-4-(6-(methylamino)pyridin-3-yl)buta-1,3-dienyl)benzo[d]thiazol-6-yloxy)ethoxy)ethoxy)ethyl)acetamide] | significantly degraded | significantly degraded
